Laboratory results reported in PubChem BioAssay AID1508612.

Assay: passive permeability, PAMPA, ADME assay (AID 1508612)
Settings: pH 7.4, 30.0 min, 50.0 µM

SMILES | Papp [×10⁻⁶ cm/s]
CCOC(=O)C1CCN(C(=O)C(C)(C)NC(=O)Nc2ccc(-c3ccccc3)cc2)CC1 | 486
Cc1cccc(-n2nc(C)c3c2NC(=O)CSC3c2ccccc2Cl)c1 (stereo not drawn) | > 1000
O=C1Nc2ccccc2/C1=C\c1ccc(O)c(Cl)c1 | 608
CCOC(=O)N1CCN(Cc2nc3c(c(=O)n(C)c(=O)n3C)n2CCC(C)C)CC1 | 765
COc1ccc(C(=O)N[C@@H]2CCC[C@@H]2C(=O)N2CCC(Cc3ccccc3)CC2)cc1 | > 1000
COc1cccc(C(=O)NCCSc2c(-c3ccc(F)cc3)[nH]c3ccccc23)c1OC | 37
CCc1ccc(OC(C)C(=O)N2CCC(c3nc4ccccc4o3)CC2)cc1 (stereo not drawn) | > 1000
CCOC(=O)c1nn(-c2ccccc2)c(=O)c2c(N)scc12 | > 1000
COc1ccc(-c2ccc3nc(-c4ccccc4C)oc3c2)c(OC)c1OC | < 1
Cc1cc(NS(=O)(=O)c2ccc(NCCc3ccc(Cl)c(Cl)c3)cc2)no1 | 406
Cn1ncnc1[C@H]1c2n[nH]c(=O)c3cc(F)cc(c23)N[C@@H]1c1ccc(F)cc1 | 60.5
O=C(c1nc(-c2cccnc2)c2ccccn12)N1CCOCC1 | 206
COc1ccc(S(=O)(=O)Nc2cnccc2C(=O)Nc2nc(-c3ccccc3)cs2)cc1 | 675
CSc1nn(Cc2cccc(C)c2)c(N)c1S(=O)(=O)c1ccccc1 | 516
Cc1ccc(OCCn2c(CCNC(=O)c3ccc(Cl)cc3)nc3ccccc32)cc1 | 754
O=[S+]([O-])(Nc1nccs1)c1ccc(NCc2cccc(Cl)c2)cc1 | 395
Cc1ccc(NC(=O)c2c(N3CCCC3=O)c3cc(C)ccc3n2C)c(C)c1 | > 1000
C#CCNC(=O)c1nc(-c2ccc(Cl)nc2)c2ccccn12 | 802
O=C(c1ccc2c(c1)OCO2)N1CCC(Cc2nc(-c3cnccn3)no2)CC1 | 71.9
COc1ccccc1N1CCN(CCN(C(=O)c2ccc(F)cc2)c2ccccn2)CC1 | > 1000
NC(=O)COCCN1CCN(C(c2ccccc2)c2ccc(Cl)cc2)CC1 (stereo not drawn) | 359
CC1=C(C(=O)Nc2nnc(-c3ccccc3)s2)C(c2nn(C)cc2Cl)N=C(Nc2nc3ccccc3o2)N1 (stereo not drawn) | 23.1
O=C(c1ccc2ncccc2c1)N1CCc2c(nc3cc[nH]n3c2=O)C1 | 101
CC(=O)c1ccc(N2CCN(C(=O)c3ccc4c(c3)CC(=O)N4)CC2)cc1 | 40.5
CN1C(=O)CN=C(c2ccc[nH]2)c2cc(Cl)ccc21 | 714
COc1ccc(CNC(=O)Cn2nc3c(cc2=O)CCCC3)cc1 | 40.6
COc1cccc(CNc2ccc(S(=O)(=O)Nc3nccs3)cc2)c1N | 28.8

SMILES | Papp [×10⁻⁶ cm/s]
COc1ccc(-c2ccc3c(N4CCOC[C@H]4C)nc(N4CCOC[C@H]4C)nc3n2)cc1CO | 182
Cn1cncc1[C@@](N)(c1ccc(Cl)cc1)c1ccc2c(c1)c(-c1cccc(Cl)c1)cc(=O)n2C | > 1000
Fc1cc(Nc2nc(-c3ccncc3)nc3ccccc23)ccc1-c1cccc(C(F)(F)F)c1 | 16.8
CN1C(=O)c2ccccc2[S@](=O)c2ccc(C(=O)NCc3ccc(Cl)cc3)cc21 | > 1000
Cc1cnc(-c2ccccc2C(F)F)nc1NCc1ccc(-n2ccnn2)cc1 | > 1000
Fc1ccc(Nc2nccc(-c3ccncc3)n2)cc1F | > 1000
Cc1ccc2c(c1)N(S(=O)(=O)c1cc(-c3onc(C)c3C)ccc1C)CCO2 | 664
CNc1oc(-c2cccc3ccccc23)nc1C#N | 723
CC(C)Oc1cccc(-c2csc(N3CCC(C(N)=O)CC3)n2)c1 | > 1000
CN(C)CC(=O)NC1CCCc2c1cnn2-c1ccc(F)cc1F (stereo not drawn) | 412
Cc1cnc(-c2ccccc2C(C)C)nc1NCC1CCN(C2COC2)CC1 | > 1000
CCCS(=O)(=O)c1nc(NC2CC2)cc(-c2ccc3c(ccn3C3CC(C)(C)NC(C)(C)C3)c2)n1 | 107
Cc1ccccc1C(=O)N1CCc2cc(-n3cc(NC(=O)Cc4ccccc4)cn3)ccc21 | 82.6
CCOC(=O)c1ccc2c(c1)c(C(C)=O)c(C)n2-c1ccc(OC)cc1 | > 1000
Cc1cccc(-c2csc(N3CCC(C(N)=O)CC3)n2)c1 | 475
O=C(NCCCNc1nc(Nc2cccc(CN3CCOCC3)c2)ncc1C1CC1)C1CCC1 | 905
COc1ccc(NC2CCCN(C(=O)CCc3ccccc3F)C2)cc1 (stereo not drawn) | 923
CCOC(=O)N1CCc2c(sc(NCc3sccc3C)c2C(=O)Nc2cc(Cl)ccc2OC)C1 | < 1
COc1ccc(-n2nc(C3CCCN(C(=O)Cc4ccc(F)cc4)C3)[nH]c2=O)cc1 (stereo not drawn) | 851
CCN(CC)S(=O)(=O)c1ccc(N2CCCC2)c(NS(=O)(=O)c2ccc(C)cc2)c1 | 253
CCOc1ccc(C2C(C(=O)Nc3ccccc3OC)=C(C)Nc3c(C(=O)Nc4cccc(C)c4)cnn32)cc1 (stereo not drawn) | 871
CCOc1ccc(Nc2nc(C)c(NC(=O)c3ccc(C)cc3)c(Nc3ccc(OCC)cc3)n2)cc1 | 211
Cc1ccc(N2CCC(CNc3nc(-c4ccccc4C(C)C)ncc3C)CC2)cn1 | > 1000
CC(C)(C)c1ccc(S(=O)(=O)N2CCC(c3ccncc3)CC2)cc1 | 320
CN(C)C(=O)c1cc(-c2ccc(S(C)(=O)=O)cc2)c2cnn(C)c2n1 | 22.6
N#Cc1cccc(NC(=O)c2sc3nc4c(cc3c2N)N2CCC4CC2)c1 | 917
